Our source for the TGI values is PubChem BioAssay (NCI).

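48-hour exposure; five concentrations; linearly interpolated endpoints. TGI is the concentration that stops growth completely.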

Test in all cases: NCI anticancer screen, dose series, 48 h
In experiment [1] the test system is COLO 205 colon.
Experiment [2] concerns SF-539 CNS.
The test system of experiment [3] is HT29 colon.
For experiment [4], the system named is SK-OV-3 ovarian.
Experiment [5] concerns SF-295 CNS.
For experiment [6], the system named is OVCAR-3 ovarian.
For experiment [7], the system named is T-47D breast.
For experiment [8], the system named is IGROV1 ovarian.
For experiment [9], the system named is NCI-H460 lung.
In experiment [10] the test system is OVCAR-4 ovarian.
The test system of experiment [11] is HCT-116 colon.

Regarding `N#Cc1c(C#N)c(SSc2c(C#N)c(C#N)c(N)n2-c2ccccc2)n(-c2ccccc2)c1N`, the TGI was 3.82 µM in experiment [1]; over 100 µM in [2]; over 59.1 µM in experiment [3]; 37.5 µM in experiment [4]; over 58.6 µM in [5]; 45.2 µM in experiment [6]. For the same compound, the TGI is 5.29 µM in [7], over 60.5 µM in experiment [8] and over 89.3 µM in [9].
`COC(=O)C1(Cc2cccc(Cl)c2)CCCCCCN1C(=O)c1ccccc1` (stereo not drawn): the TGI in experiment [1] amounted to 38.7 µM; in experiment [3], 32.1 µM; in experiment [10], 50.6 µM; in [11], 29.7 µM; in experiment [4] it was 42.8 µM; in experiment [5], 22.1 µM. The TGI came to 20.4 µM in experiment [6], 37.4 µM in [7], 45.5 µM in [8] and 33.8 µM in [9].
As to `COc1ccc(C)cc1NC(=S)N/N=C/c1ccc(SC)cc1`, the TGI in [1] was over 100 µM; in experiment [2], 89.9 µM; in [3] it was over 100 µM; in experiment [10] it was over 100 µM; in experiment [11] it was over 100 µM; in experiment [4] it was 91.4 µM. Also, the TGI in [5], in [6], in experiment [7] and in experiment [8] was over 100 µM throughout.
Regarding `CSCCCCCCCCCCOc1ccc(C=C2C(=C(C#N)C#N)c3ccccc3C2=C(C#N)C#N)cc1`, the TGI in [2] was found to be 37.3 µM; in experiment [3], 31 µM; in experiment [10], 41.3 µM; in [11] it was 34.2 µM; in experiment [4], 32.1 µM; in [5], 34 µM. Besides, the TGI in experiment [6] came to 30 µM; in experiment [7] it was 51.4 µM; in experiment [8] it was 34.7 µM; in experiment [9], 32.2 µM.
As to `CSc1c(C#N)c2n(c3ccccc3[n+]2C)c2ncccc12`, the TGI is 54.2 µM in experiment [1]; over 100 µM in experiment [3]; 91.1 µM in experiment [10]; over 100 µM in experiment [11]; over 100 µM in experiment [4]; over 100 µM in experiment [5]. Also, the TGI in experiment [6] was 71.7 µM; in [7], 80 µM; in experiment [8] it was over 100 µM; in experiment [9] it was over 100 µM.
As for `Cc1ccc(/C=N/Nc2ncccn2)s1`, the TGI in experiment [1], in experiment [2], in [3], in [10], in experiment [11] and in experiment [4] was over 100 µM throughout. For the same compound, the TGI in [5], in experiment [6], in experiment [7] and in experiment [8] was over 100 µM in each case.
Regarding `CC(C)(C)/C(O)=C\c1nc2cc(C(F)(F)F)ccc2[nH]c1=O`, the TGI in experiment [1], in experiment [3], in experiment [10], in experiment [11], in [4] and in experiment [5] was over 100 µM each time. Moreover, the TGI in experiment [6], in experiment [7] and in experiment [8] was over 100 µM throughout.
Regarding `CSCCC(NC(c1ccccc1)c1ccccc1)[P+](=O)O` (stereo not drawn), the TGI in experiment [1], in experiment [3], in experiment [10], in experiment [11], in experiment [4] and in experiment [5] was over 100 µM in each case. The TGI in experiment [6], in [7], in experiment [8] and in experiment [9] was over 100 µM in each case.
`COC(=O)C1=C(O)C(C(=O)OC)[C@]2(O)[C@H](C(=O)OC)[C@H]1C[C@@H](c1ccc(OC)cc1)[C@H]2C(=O)OC` (stereo partly drawn): the TGI in [1] is over 100 µM; in [2], over 100 µM; in [3], 97.7 µM; in experiment [10] it was 78.2 µM; in experiment [11] it was 38.5 µM; in experiment [4], 65.5 µM. Further, the TGI in experiment [5] was over 100 µM; in [7] it was over 100 µM; in [8], over 100 µM; in experiment [9] it was 50 µM.
Turning to `CC(C)[Si]1(C(C)C)OCC2OC(n3ccc(=O)[nH]c3=O)C(O)(CO)C2O[Si](C(C)C)(C(C)C)O1` (stereo not drawn), the TGI in [1] amounted to 31.7 µM; in experiment [2] it was 32.2 µM; in experiment [3] it was 28.7 µM; in [10] it was 26.9 µM; in experiment [11], 27.7 µM; in experiment [4] it was 30.2 µM. Also, the TGI in experiment [5] amounted to 28.5 µM; in experiment [6] it was 29.4 µM; in experiment [7], 30.2 µM; in [8], 23.9 µM.
Take `CCCc1c2c3ccccc3nc-2nc2ccccn12`: the TGI in experiment [1], in experiment [2], in experiment [3], in experiment [10], in experiment [4] and in experiment [5] was over 100 µM each time. Also, the TGI in experiment [6], in [7], in experiment [8] and in experiment [9] was over 100 µM in each case.
For `Cc1nc2c(-c3ccccc3)[nH]c(C)c2c(=O)o1`, the TGI in [1], in experiment [2], in [3], in [10], in experiment [11] and in [4] was over 100 µM in each case. For the same compound, the TGI in experiment [5], in experiment [7], in [8] and in experiment [9] was over 100 µM in each case.
For the compound `CCCCCCCCCN1CCC(=O)C(C(=O)OC)C1` (stereo not drawn), the TGI in [1] was 30.8 µM; in experiment [2], 36.5 µM; in experiment [3], 22.7 µM; in experiment [10] it was 12.4 µM; in experiment [11], 26.9 µM; in [4] it was 31.1 µM. For the same compound, the TGI in experiment [5] came out at 31.9 µM; in experiment [6], 29.4 µM; in [7], 28.3 µM; in experiment [9], 32.9 µM.
